Assay results from patent US20250268926A1, “METHOD AND COMPOSITION FOR TREATING, ALLEVIATING OR PREVENTING A DISEASE OR CONDITION CAUSED BY AIR POLLUTANT” (Hong Kong Baptist University, priority 2024, published 2025).

Tests used:
Assay type in all cases: cell-based, human
BEAS-2B cells [1] = assay: Seahorse Cell Mito stress test (OCR); conditions: for ATP production / basal respiration / maximal respiration: after exposure to PM2.5 from both Taiyuan and Guangzhou (200 μg/mL), metabolite 200 μM
Experimental: (§1) To detect the cell viability, different concentrations (25 μM, 50 μM, 100 μM, and 200 μM) of selected metabolic markers were added to BEAS-2B cell cultures for 24 h, followed by 200 μg/mL PM2.5 samples for another 24 h. After exposure, 10 μL CCK-8 with 100 μL mediums were added to the cells and incubated for 1.5 h, the absorption was detected at 450 nm to assess cell viability. Agilent Seahorse assays were used to evaluate the effects of metabolic markers on mitochondrial functions. The OCR of cells was determined after being treated by both metabolic markers (200 μM) and PM2.5 samples (200 μg/mL) (n=3).
(§2) Cell Mito stress test: BEAS-2B cells were seeded in the XF 96-well Seahorse assay miniplates with a density of 20,000 cells/well in BEGM™ bronchial epithelial cell growth medium and incubated for 24 h at 37° C. After exposure, the cells were washed with XF assay medium including 10 mM glucose, 1 mM sodium pyruvate, and 2 mM L-glutamine (adjusted pH to 7.4 with 0.1 M NaOH) and incubated for 1 h in a 37° C. non-CO2 incubator. Before assay, the sensor cartridge was hydrated in Agilent Seahorse XF Calibrant at 37° C. in a non-CO2 incubator overnight, and oligomycin (port A final 1 μM), carbonyl cyanide-4-(trifluoromethoxy) phenylhydrazone (FCCP) (port B final 1 μM chosen from the optimization assay) and rotenone antimycin A (port C final 0.5 μM) were added to the corresponding ports of the hydrated sensor cartridge. Then the cartridge was transferred to the Seahorse analyzer (Agilent Technologies) to calibrate the period for approximately 20 min. When the calibration has been completed, the utility plate was removed and the cell miniplate was placed to start the assay. The assay was divided into four parts. After the equilibration period was three basal assays, and then oligomycin was added to inhibit the complex V (ATP synthase) for three cycles, FCCP was followed to stimulate maximal respiration in mitochondria by uncoupling ATP synthesis from electron transport. Lastly, rotenone plus antimycin A was added to determine the non-mitochondrial respiratory rate. Oxygen consumption rate (OCR) was used to assess the mitochondrial respiratory change.

BEAS-2B cells [2] = assay: Seahorse substrate oxidation stress test (glucose / fatty acid oxidation); conditions: for maximal respiration of cells with oxidation inhibitor: cells with or without PM2.5
Experimental: as §2
The substrate oxidation stress test was used to assess the specific mitochondrial substrates that were relevant or required for cellular phenotype and function. Two different inhibitors (UK50099 for the glucose pathway and etomoxir for the long-chain fatty acids pathway) were added before the Mito stress test and the following process was the same with the Mito stress test.

PGC-1α = assay: qPCR gene expression, PGC-1α; conditions: repressed by PM2.5 exposure
Experimental: (§3) Total RNA was extracted from BEAS-2B cells with RNAiso plus kit (TaKaRa, Shiga, Japan) according to the manufacturer's instructions. Reverse transcription of cDNA synthesis and real-time quantitative polymerase chain reaction (qPCR) were performed as described previously. All primers synthesized at BGI Co., Ltd. (Hong Kong, China) were described in Table 2.

Phospho1 = assay: qPCR gene expression, Phospho1
Experimental: as §3

BEAS-2B cells [3] = assay: Cell viability (CCK-8) of BEAS-2B cells given metabolic markers, then PM2.5; conditions: metabolite 25-200 μM for 24 h, then 200 μg/mL PM2.5 for 24 h
Experimental: as §1

OGT = assay: qPCR gene expression, OGT; conditions: after PM2.5 exposure
Experimental: as §3

GFAT = assay: qPCR gene expression, GFAT; conditions: after exposure to PM2.5
Experimental: as §3

Compound | ATP production (BEAS-2B cells [1]) | basal respiration (BEAS-2B cells [1]) | maximal respiration (BEAS-2B cells [1]) | cell viability reduced by PM2.5 exposure (BEAS-2B cells [3]) | other results
CC(=O)N[C@@H](CC(=O)O)C(=O)O [NAA, N-acetyl-aspartic acid] | significantly increase | significantly increase | significantly increase | – | –
CCOC(=O)[C@@]1(CCCCCCOc2ccc(Cl)cc2)CO1 [etomoxir, reference compound] | – | – | – | – | maximal respiration of cells with oxidation inhibitor (BEAS-2B cells [2]): did not change
C[N+](C)(C)CCOP(=O)([O-])O [Pc, phosphocholine] | significantly increase | significantly increase | significantly increase | improve the cell viability | PGC-1α expression (PGC-1α): rescued; maximal respiration, fatty acid oxidation test (BEAS-2B cells [2]; only in the PM2.5-exposed lung cells): significantly increased; Phospho1 expression (Phospho1; after PM2.5 exposure): greatly downregulated; Phospho1 expression (Phospho1; normal cells): no effects; effect against adverse impacts of the TY1 panel on mitochondrial functions (BEAS-2B cells [1]; cells exposed to TY1): protective effects
uridine diphosphate N-acetylglucosamine [UDP-GlcNAc] | significantly increase | significantly increase | significantly increase | – | increase of cells' glucose oxidation (BEAS-2B cells [2]; cultures with and without PM2.5): 1.6 fold; OGT expression (OGT): partially rescued; GFAT expression (GFAT): interacted with the decline of GFAT
CN(CC(=O)O)C(=N)N [creatine] | – | – | – | improve the cell viability | –
N#C/C(=C\c1cn(-c2ccccc2)c2ccccc12)C(=O)O [UK5099, reference compound] | – | – | – | – | maximal respiration of cells with oxidation inhibitor (BEAS-2B cells [2]): remarkably reduced
NCCS(=O)(=O)O [taurine] | – | – | – | improve the cell viability | –
